{
  "source": "ChEMBL document CHEMBL1154382",
  "about": "“Preliminary SAR analysis of novel antiproliferative N(6),5'-bis-ureidoadenosine derivatives” (2009)",
  "type_in_all_cases": "functional",
  "key": {"HCC 2998": {"tested_on": "HCC 2998", "experiment": "Antiproliferative activity against human HCC2998 cells"}, "CAKI-1": {"tested_on": "CAKI-1", "experiment": "Antiproliferative activity against human Caki1 cells"}, "SK-MEL-2": {"tested_on": "SK-MEL-2", "experiment": "Antiproliferative activity against human SK-MEL-2 cells"}, "U-251": {"tested_on": "U-251", "experiment": "Antiproliferative activity against human U251 cells"}, "KM12": {"tested_on": "KM12", "experiment": "Antiproliferative activity against human KM12 cells"}, "UO-31": {"tested_on": "UO-31", "experiment": "Antiproliferative activity against human UO31 cells"}, "SN12C": {"tested_on": "SN12C", "experiment": "Antiproliferative activity against human SN12C cells"}, "SF-268": {"tested_on": "SF-268", "experiment": "Antiproliferative activity against human SF268 cells"}, "T47D": {"tested_on": "T47D", "experiment": "Antiproliferative activity against human T47D cells"}, "K562": {"tested_on": "K562", "experiment": "Antiproliferative activity against human K562 cells"}, "SW-620": {"tested_on": "SW-620", "experiment": "Antiproliferative activity against human SW620 cells"}, "ACHN": {"tested_on": "ACHN", "experiment": "Antiproliferative activity against human ACHN cells"}, "IGROV-1": {"tested_on": "IGROV-1", "experiment": "Antiproliferative activity against human IGROV1 cells"}, "MCF7": {"tested_on": "MCF7", "experiment": "Antiproliferative activity against human MCF7 cells"}, "BT-549": {"tested_on": "BT-549", "experiment": "Antiproliferative activity against human BT549 cells"}, "OVCAR-3": {"tested_on": "OVCAR-3", "experiment": "Antiproliferative activity against human OVCAR-3 cells"}, "SK-OV-3": {"tested_on": "SK-OV-3", "experiment": "Antiproliferative activity against human SKOV3 cells"}, "NCI-H226": {"tested_on": "NCI-H226", "experiment": "Antiproliferative activity against human NCI-H226 cells"}, "OVCAR-4": {"tested_on": "OVCAR-4", "experiment": "Antiproliferative activity against human OVCAR4 cells"}, "LOX IMVI": {"tested_on": "LOX IMVI", "experiment": "Antiproliferative activity against human LOXIMVI cells"}, "Malme-3M": {"tested_on": "Malme-3M", "experiment": "Antiproliferative activity against human MALME-3M cells"}, "SR": {"tested_on": "SR", "experiment": "Antiproliferative activity against human SR cells"}, "NCI-H522": {"tested_on": "NCI-H522", "experiment": "Antiproliferative activity against human NCI-H522 cells"}, "EKVX": {"tested_on": "EKVX", "experiment": "Antiproliferative activity against human EKVX cells"}, "RXF 393": {"tested_on": "RXF 393", "experiment": "Antiproliferative activity against human RXF393 cells"}, "A498": {"tested_on": "A498", "experiment": "Antiproliferative activity against human A498 cells"}, "DU-145": {"tested_on": "DU-145", "experiment": "Antiproliferative activity against human DU145 cells"}, "SK-MEL-28": {"tested_on": "SK-MEL-28", "experiment": "Antiproliferative activity against human SK-MEL-28 cells"}, "NCI-H460": {"tested_on": "NCI-H460", "experiment": "Antiproliferative activity against human NCI-H460 cells"}, "M14": {"tested_on": "M14", "experiment": "Antiproliferative activity against human M14 cells"}, "MDA-MB-435": {"tested_on": "MDA-MB-435", "experiment": "Antiproliferative activity against human MDA-MB-435 cells"}, "MDA-MB-231": {"tested_on": "MDA-MB-231", "experiment": "Antiproliferative activity against human MDA-MB-231 cells"}, "HOP-92": {"tested_on": "HOP-92", "experiment": "Antiproliferative activity against human HOP92 cells"}, "SF-539": {"tested_on": "SF-539", "experiment": "Antiproliferative activity against human SF539 cells"}, "SK-MEL-5": {"tested_on": "SK-MEL-5", "experiment": "Antiproliferative activity against human SK-MEL-5 cells"}, "HCT-15": {"tested_on": "HCT-15", "experiment": "Antiproliferative activity against human HCT15 cells"}, "UACC-257": {"tested_on": "UACC-257", "experiment": "Antiproliferative activity against human UACC257 cells"}, "HCT-116": {"tested_on": "HCT-116", "experiment": "Antiproliferative activity against human HCT116 cells"}, "MOLT-4": {"tested_on": "MOLT-4", "experiment": "Antiproliferative activity against human MOLT4 cells"}, "COLO 205": {"tested_on": "COLO 205", "experiment": "Antiproliferative activity against human COLO205 cells"}, "[1]": {"experiment": "Antiproliferative activity against human […] cells"}, "CCRF-CEM": {"tested_on": "CCRF-CEM", "experiment": "Antiproliferative activity against human CCRF-CEM cells"}, "SNB-19": {"tested_on": "SNB-19", "experiment": "Antiproliferative activity against human SNB19 cells"}, "HOP-62": {"tested_on": "HOP-62", "experiment": "Antiproliferative activity against human HOP62 cells"}, "786-0": {"tested_on": "786-0", "experiment": "Antiproliferative activity against human 786-0 cells"}, "OVCAR-5": {"tested_on": "OVCAR-5", "experiment": "Antiproliferative activity against human OVCAR5 cells"}, "HT-29": {"tested_on": "HT-29", "experiment": "Antiproliferative activity against human HT-29 cells"}, "NCI-H322M": {"tested_on": "NCI-H322M", "experiment": "Antiproliferative activity against human NCI-H322M cells"}, "NCI-H23": {"tested_on": "NCI-H23", "experiment": "Antiproliferative activity against human NCI-H23 cells"}, "A549": {"tested_on": "A549", "experiment": "Antiproliferative activity against human A549 cells"}, "UACC-62": {"tested_on": "UACC-62", "experiment": "Antiproliferative activity against human UACC62 cells"}, "SNB-75": {"tested_on": "SNB-75", "experiment": "Antiproliferative activity against human SNB75 cells"}, "TK-10": {"tested_on": "TK-10", "experiment": "Antiproliferative activity against human TK10 cells"}, "SF-295": {"tested_on": "SF-295", "experiment": "Antiproliferative activity against human SF295 cells"}, "OVCAR-8": {"tested_on": "OVCAR-8", "experiment": "Antiproliferative activity against human OVCAR8 cells"}, "[2]": {"experiment": "Antiproliferative activity against human Hs 578T cells"}, "HL-60(TB)": {"tested_on": "HL-60(TB)", "experiment": "Antiproliferative activity against human HL-60(TB) cells"}},
  "data": [
    {"smiles": "CNC(=O)NC[C@H]1O[C@@H](n2cnc3c(NC(=O)Nc4ccccc4)ncnc32)[C@H](O[Si](C)(C)C(C)(C)C)[C@@H]1CC(=O)N(C)OC", "values": [
      {"measurement": "GI50", "setting": "HCC 2998", "result": 30.6, "unit": "µM"},
      {"measurement": "GI50", "setting": "CAKI-1", "result": 53.8, "unit": "µM"},
      {"measurement": "GI50", "setting": "SK-MEL-2", "result": 14.9, "unit": "µM"},
      {"measurement": "GI50", "setting": "U-251", "result": 5.66, "unit": "µM"},
      {"measurement": "GI50", "setting": "KM12", "result": 23.9, "unit": "µM"},
      {"measurement": "GI50", "setting": "UO-31", "result": 7.79, "unit": "µM"},
      {"measurement": "GI50", "setting": "SN12C", "result": 85.3, "unit": "µM"},
      {"measurement": "GI50", "setting": "SF-268", "result": 8.29, "unit": "µM"},
      {"measurement": "GI50", "setting": "T47D", "result": 13.9, "unit": "µM"},
      {"measurement": "GI50", "setting": "K562", "result": 3.12, "unit": "µM"},
      {"measurement": "GI50", "setting": "SW-620", "result": "> 100", "unit": "µM"},
      {"measurement": "GI50", "setting": "ACHN", "result": 14.4, "unit": "µM"},
      {"measurement": "GI50", "setting": "IGROV-1", "result": 3.72, "unit": "µM"},
      {"measurement": "GI50", "setting": "MCF7", "result": 5.59, "unit": "µM"},
      {"measurement": "GI50", "setting": "BT-549", "result": 29, "unit": "µM"},
      {"measurement": "GI50", "setting": "OVCAR-3", "result": 7.11, "unit": "µM"},
      {"measurement": "GI50", "setting": "SK-OV-3", "result": 52.7, "unit": "µM"},
      {"measurement": "GI50", "setting": "NCI-H226", "result": 41.9, "unit": "µM"},
      {"measurement": "GI50", "setting": "OVCAR-4", "result": 53, "unit": "µM"},
      {"measurement": "GI50", "setting": "LOX IMVI", "result": 7.3, "unit": "µM"},
      {"measurement": "GI50", "setting": "Malme-3M", "result": 11.4, "unit": "µM"},
      {"measurement": "GI50", "setting": "SR", "result": 1.27, "unit": "µM"},
      {"measurement": "GI50", "setting": "NCI-H522", "result": 11.1, "unit": "µM"},
      {"measurement": "GI50", "setting": "EKVX", "result": 26.4, "unit": "µM"},
      {"measurement": "GI50", "setting": "RXF 393", "result": 9.74, "unit": "µM"},
      {"measurement": "GI50", "setting": "A498", "result": 3.87, "unit": "µM"},
      {"measurement": "GI50", "setting": "DU-145", "result": 16.6, "unit": "µM"},
      {"measurement": "GI50", "setting": "SK-MEL-28", "result": 7.77, "unit": "µM"},
      {"measurement": "GI50", "setting": "NCI-H460", "result": 7.49, "unit": "µM"},
      {"measurement": "GI50", "setting": "M14", "result": 15.2, "unit": "µM"},
      {"measurement": "GI50", "setting": "MDA-MB-435", "result": 10.9, "unit": "µM"},
      {"measurement": "GI50", "setting": "MDA-MB-231", "result": 12.3, "unit": "µM"},
      {"measurement": "GI50", "setting": "HOP-92", "result": 2.71, "unit": "µM"},
      {"measurement": "GI50", "setting": "SF-539", "result": 22.3, "unit": "µM"},
      {"measurement": "GI50", "setting": "SK-MEL-5", "result": 5.81, "unit": "µM"},
      {"measurement": "GI50", "setting": "HCT-15", "result": 6.47, "unit": "µM"},
      {"measurement": "GI50", "setting": "UACC-257", "result": 22.6, "unit": "µM"},
      {"measurement": "GI50", "setting": "HCT-116", "result": 4.2, "unit": "µM"},
      {"measurement": "GI50", "setting": "MOLT-4", "result": 2.23, "unit": "µM"},
      {"measurement": "GI50", "setting": "COLO 205", "result": 12.3, "unit": "µM"},
      {"measurement": "GI50", "setting": "[1]", "result": 1.58, "unit": "µM"},
      {"measurement": "GI50", "setting": "CCRF-CEM", "result": 6.37, "unit": "µM"},
      {"measurement": "GI50", "setting": "SNB-19", "result": "> 100", "unit": "µM"},
      {"measurement": "GI50", "setting": "HOP-62", "result": 24.9, "unit": "µM"},
      {"measurement": "GI50", "setting": "786-0", "result": 9.01, "unit": "µM"},
      {"measurement": "GI50", "setting": "OVCAR-5", "result": 38.2, "unit": "µM"},
      {"measurement": "GI50", "setting": "HT-29", "result": 5.37, "unit": "µM"},
      {"measurement": "GI50", "setting": "NCI-H322M", "result": "> 100", "unit": "µM"},
      {"measurement": "GI50", "setting": "NCI-H23", "result": 57.2, "unit": "µM"},
      {"measurement": "GI50", "setting": "A549", "result": 9.35, "unit": "µM"},
      {"measurement": "GI50", "setting": "UACC-62", "result": 41.9, "unit": "µM"},
      {"measurement": "GI50", "setting": "SNB-75", "result": 12.7, "unit": "µM"},
      {"measurement": "GI50", "setting": "TK-10", "result": 20.5, "unit": "µM"},
      {"measurement": "GI50", "setting": "SF-295", "result": 9.09, "unit": "µM"},
      {"measurement": "GI50", "setting": "OVCAR-8", "result": 9.02, "unit": "µM"},
      {"measurement": "GI50", "setting": "[2]", "result": 5.79, "unit": "µM"},
      {"measurement": "GI50", "setting": "HL-60(TB)", "result": 0.00181, "unit": "µM"}
    ]}
  ]
}
